One data set addresses T1, proteasome (Homo sapiens, UniProt P28074).
T1 construct: proteasome activity in U-251 cells treated for 4 or 24 hours; endogenous in cells; host or cells: U-251 cells (lysates of treated cells)
T1 sequence (P28074 60-263): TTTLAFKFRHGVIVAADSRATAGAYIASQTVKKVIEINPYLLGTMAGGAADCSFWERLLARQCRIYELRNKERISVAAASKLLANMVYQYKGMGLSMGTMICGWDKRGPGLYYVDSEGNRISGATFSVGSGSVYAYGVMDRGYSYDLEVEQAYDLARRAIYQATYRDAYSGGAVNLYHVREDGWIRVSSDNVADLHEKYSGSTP
Nature of the data set: Proteasome activity assay, U-251 cells. The class given is cell-based. The settings on record: U-251, 50 μM. The procedure:
The peptidase or chymotrypsin-like activity of the proteasome was assayed using N-succinyl-Leu-Leu-Val-Tyr-7-amido-4-methylcoumarin. The lysates (100 μL) were incubated with 13 (M of the substrate in 100 mM Tris, pH 7.5, for 1 hour with shaking at room temperature. The reaction was stopped by addition of ice-cold ethanol, and the samples were centrifuged for 5 minutes at 2500 g. The supernatants were collected and the fluorescence was measured with excitation/emission filters of 390/460 nm using the FluoStar fluorimeter. The protein concentration was determined using a BCATM kit (Pierce) and the proteasome activity was derived from the ratio of fluorescence at 460 nm/(g of protein. The percentage of proteasome activity was calculated relative to untreated cells.

In a further data set the test system is HL-60 cells. Nature of the data set: MTT viability assay, HL-60 leukemic cells. The class given is cell-based, human. Here is the method: (§1) Cells (in quadruplicate) at the specified density were suspended in 200 μL medium supplemented with 10% FCS seeded in 96-well plates for 24 hours, then exposed to the drugs for 72 hours. The viability of the cells was determined by Hoechst fluorescent assay as described by Nudelman et al., 2005. Leukemic cell viability after 72 hours of treatment was determined by an MTT (3-(4,5-dimethylthiazol-2-yl)-2,5-diphenyltetrazolium bromide) assay as described by Levovich et al., 2007.
(§2) IC50 values were determined by linear regression of the percentage of survival following drug titration.

The test system of data set [1] is U-251 cells. Nature of the data set: Hoechst viability assay, U-251 glioma cells. The data set is classed as cell-based, human. Here is the method: as §1, §2
Data set [2] relates to rat primary cardiomyocytes. Nature of the data set: ROS production (DCF-DA) in rat primary cardiomyocytes. The data set is classed as cell-based. The procedure:
Neonatal rat ventricular cardiomyocytes were isolated and cultured in collagen coated culture dishes as described by Shalitin et al., 1996. Growth medium contained DMEM:Ham's F12 (1:1), fetal calf serum (10%) and antibiotics. Treatment was administered to spontaneously beating cardiomyocytes 48 hours after plating.

Data set [3] concerns U-251 cells. Briefly: Nitric oxide production assay, U-251 cells. The settings on record: 50 μM (mixture 50 μM + 50 μM), 1 hour treatment. The class given is cell-based, human. Here is the method: U251 cells (5×10^4) were seeded in 24 well plates, and after 24 hours washed and resuspended in PBS. […] Fluorescence was measured with excitation/emission filters of 390/440 nm in a FluoStar fluorimeter. The concentration of nitrate was determined by subtracting the nitrite concentration from the total concentration of nitrite+nitrate.

Data set [4] deals with U-251 cells. Nature of the data set: Reactive oxygen species by DCF-DA FACS, U-251 cells. The data set is classed as cell-based, human. The following applies: 2 hour treatment. The procedure: ROS levels were determined by FACS analysis of U-251 cells treated with dichlorodihydrofluorescein diacetate (DCF-DA), which becomes fluorescent when oxidized.
A further data set has as its system p21. Nature of the data set: p21 Western blot, U-251 cells. The data set is classed as cell-based, human. The following applies: compared with Compound 12 and acyclovir. The procedure:
Cell lysates or acid extracted histones were solubilized in a concentrated (×4) loading buffer (62.5 mM Tris-HCl, pH 6.8, 1% SDS, 10% glycerol v/v, 1% dithiothreitol (DTT) and 0.1 mg/ml bromophenol blue). Proteins (10-40 μg) were run on SDS-PAGE, transferred to a nitrocellulose membrane (Schleicher & Schuell, Germany) and probed with the primary antibodies, followed by incubation with a horseradish peroxidase (HRP)-goat anti-rabbit IgG or HRP-rabbit anti-mouse IgG as secondary antibodies. HRP bound to the secondary antibodies was visualized by the enhanced chemiluminescence method using the Western Blotting Luminol reagent (Santa Cruz, Calif., USA). The membrane was exposed for 5 minutes to Chemiluminescence BioMax light film (Kodak, USA) and the intensity of the bands was measured with a VersaDoc instrument with a Quantityl program (Bio-Rad, USA). The fold increase of each specific protein was determined by the ratio of band intensities of treated and untreated cells, normalized to loading control (actin or total histone H3).
Background: In western blotting, separated proteins are transferred to a membrane and probed.

The subject of a further data set is acetylated histone H4. Nature of the data set: Histone H4 acetylation Western blot, U-251 cells. The data set is classed as cell-based, human. The following applies: 2-4 hours of treatment. Here is the method: For the determination of in vitro histone acetylation, 2.5-3×10^6 cells, seeded in 100 mm culture dishes, were supplemented with RPMI medium containing 10% heat inactivated FCS and were treated with the drugs the following day. At the specified times post-treatment, the cells were removed with a rubber policeman, centrifuged, washed, lysed with lysis buffer (PBS, Nonidet® NP-40 1%, sodium deoxycholate 0.5%, sodium dodecyl sulfate (SDS) 0.1%, 1 mM phenylmethylsulfonyl fluoride (PMSF), 1 mM sodium orthovanadate, and 1 μM each of leupeptin and pepstatin) and centrifuged at 10,000 g for 10 minutes at 4° C. […] The extract was then lyophilized, and protein concentration was determined with a BCA kit (Pierce, USA). […] The fold increase of acetylated histones was determined by the ratio of band intensities of treated and untreated cells or mice, normalized to loading control (total histone H3).
Cell lysates or acid extracted histones were solubilized in a concentrated (×4) loading buffer (62.5 mM Tris-HCl, pH 6.8, 1% SDS, 10% glycerol v/v, 1% dithiothreitol (DTT) and 0.1 mg/ml bromophenol blue). […] The membrane was exposed for 5 minutes to Chemiluminescence BioMax light film (Kodak, USA) and the intensity of the bands was measured with a VersaDoc instrument with a Quantityl program (Bio-Rad, USA). […]

In data set [5] the test system is U-251 cells. Nature of the data set: Apoptosis/cell death by annexin V-FITC and propidium iodide FACS, U-251 cells. The class given is cell-based.
Procedure: Cells were seeded in six-well plates (10^5 cells/well) for 24 hours and were then treated as specified, trypsinized, washed with PBS, double-stained with annexin V-FITC (fluorescein isothiocyanate) and propidium iodide, according to the manufacturer's instructions and subjected to flow cytometry analysis (FACScalibur cytometer, Becton Dickinson).
In another data set the test system is MCF-7 cells. Briefly: Hoechst viability assay, MCF-7 breast carcinoma cells. The data set is classed as cell-based, human. The procedure:
as §1, §2

The test system of another data set is 4T1 cells. Nature of the data set: Hoechst viability assay, 4T1 breast carcinoma cells (Dox combination). The data set is classed as cell-based, murine. The following applies: Mus musculus, 72 hours, 3 experiments. The procedure:
as §1, §2
The combination index for drug interaction was calculated by Chou's Median Effect Analysis (MEA) [Chou, 2006]. The combination index (CI) was defined as CI=D1/(DM)1+D2/(DM)2, where D1 and D2 are the doses of drug 1 and drug 2, respectively, (DM)1 and (DM)2 are the doses of drug 1 and drug 2 and their mixture (in a specified ratio) required to produce a median effect, e.g., IC50. CI<1, =1 or >1 indicates synergism, additive effect, and antagonism respectively.

Some results are limits rather than exact numbers.

The term inhibition denotes the share of the control response that was lost under treatment. A lower inhibition goes with a response near the control. For orientation: IC50 means the concentration that inhibits the measured activity by half. For orientation: mortality means the percentage killed.

Take `CCCC(CCC)C(=O)Nc1nc2c(ncn2COCCOC(=O)C(CCC)CCC)c(=O)[nH]1` [Compound 6, N-valproyl-9-(2-valproyloxy)ethoxymethylguanine]: the inhibition at 50 µM is over 50% against proteasome (after 4 hours) and over 75% against proteasome (after 24 hours). Also, the “IC50 fold lower than that of VA” value in the data set with HL-60 cells is “over 20 fold”; with MCF-7 cells (MCF-7 cells, Hoechst), “over 20 fold”. Moreover, the “IC50 fold lower than that of the mixture of VA and acyclovir” value in the data set on HL-60 cells (acyclovir:VA 1:2) is recorded as “over 50 fold”; in the data set with MCF-7 cells (MCF-7 cells, Hoechst, acyclovir:VA 1:2) it was “over 50 fold”. In addition, the “activity relative to acyclovir” value in the data set with U-251 cells [1] is over 100 fold. The IC50 with U-251 cells [1] (Homo sapiens, 72 hours, Hoechst, read-out: IC50) worked out at 32 ± 2 µM; in the data set on 4T1 cells, 33.7 µM. Besides, in data set [2] (4 hours), the “production of reactive oxygen radicals (ROS)” value is recorded as “did not increase production of reactive oxygen radicals”. In data set [2] (combined with 2 μM Dox), the “effect on ROS production induced by Dox” value is given as “prevented the formation of ROS”. Further, the NO production result in the data set with U-251 cells [3] was “increased NO production in U-251 cells considerably”. In the data set on U-251 cells [4], the “level of oxidation in cells (ROS)” value is “considerably increased the level of oxidation in cells”. Further, the “expression of p21” value in the data set with p21 was “induces expression of the cyclin dependent kinase inhibitor p21 more quickly and to a greater extent”. Moreover, the “acetylation of histone H4” value in the data set with acetylated histone H4 was “induced acetylation of H4”. The molecule further showed a mortality at 50 µM in the data set on U-251 cells [5] (Homo sapiens, U-251 glioblastoma cells, 50 μM, 24 hours (untreated 9%)) of 29%. Moreover, the “percentage of apoptotic cells” value in the data set on U-251 cells [5] (U-251 cells, 24 hours) is reported as “increased the percentage of apoptotic cells in a dose dependent manner”. In addition, in the data set with MCF-7 cells (400 μM NAC, FIG. 3b), the “effect of N-acetylcysteine (NAC) on the activity of the compound” value was “did not reduce the activity”.
